The target of one experiment is Acetylcholinesterase (Electrophorus electricus, UniProt O42275).
In another experiment the target is Cholinesterase (Equus caballus, UniProt P81908).
Cholinesterase, sequence (P81908 whole entry): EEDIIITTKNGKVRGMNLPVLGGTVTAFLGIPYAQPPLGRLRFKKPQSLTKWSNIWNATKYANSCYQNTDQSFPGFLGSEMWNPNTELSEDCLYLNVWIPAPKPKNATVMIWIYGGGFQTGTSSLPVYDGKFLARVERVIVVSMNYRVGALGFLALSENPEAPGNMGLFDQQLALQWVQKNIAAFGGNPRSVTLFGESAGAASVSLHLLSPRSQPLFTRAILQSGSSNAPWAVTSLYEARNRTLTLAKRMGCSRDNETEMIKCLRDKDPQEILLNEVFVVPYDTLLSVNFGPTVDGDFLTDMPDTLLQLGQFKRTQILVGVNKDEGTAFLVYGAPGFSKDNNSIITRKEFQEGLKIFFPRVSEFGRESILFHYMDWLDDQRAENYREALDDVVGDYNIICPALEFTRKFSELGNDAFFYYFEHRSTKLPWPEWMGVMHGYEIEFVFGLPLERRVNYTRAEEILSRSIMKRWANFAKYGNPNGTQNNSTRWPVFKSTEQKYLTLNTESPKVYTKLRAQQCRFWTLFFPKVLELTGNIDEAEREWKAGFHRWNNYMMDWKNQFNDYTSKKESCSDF

Acetylcholinesterase, sequence (O42275 whole entry): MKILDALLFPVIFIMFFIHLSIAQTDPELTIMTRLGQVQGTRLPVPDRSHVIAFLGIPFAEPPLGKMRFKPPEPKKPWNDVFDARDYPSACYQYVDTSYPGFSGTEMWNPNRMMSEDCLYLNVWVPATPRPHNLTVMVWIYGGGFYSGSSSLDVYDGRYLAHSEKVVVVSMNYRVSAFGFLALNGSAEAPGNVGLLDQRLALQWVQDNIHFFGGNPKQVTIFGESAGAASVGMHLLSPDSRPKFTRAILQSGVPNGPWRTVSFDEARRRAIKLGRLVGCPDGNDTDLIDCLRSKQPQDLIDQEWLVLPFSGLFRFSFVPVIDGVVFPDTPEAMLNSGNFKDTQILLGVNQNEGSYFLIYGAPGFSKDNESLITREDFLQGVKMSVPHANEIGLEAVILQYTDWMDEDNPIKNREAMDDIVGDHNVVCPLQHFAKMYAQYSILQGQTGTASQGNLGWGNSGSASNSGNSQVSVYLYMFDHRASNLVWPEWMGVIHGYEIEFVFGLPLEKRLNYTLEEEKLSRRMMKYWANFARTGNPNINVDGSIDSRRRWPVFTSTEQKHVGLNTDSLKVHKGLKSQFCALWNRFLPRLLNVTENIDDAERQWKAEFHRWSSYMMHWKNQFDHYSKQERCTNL
Description for Acetylcholinesterase: Inhibition of electric eel AChE by Ellman's method

With `c1ccc(C/N=c2/c3ccccc3nc3n2CCCCCC3)cc1`, the IC50 was over 500000 nM on Acetylcholinesterase (read-out: IC50) and 1100 nM on Cholinesterase.

`c1ccc(C/N=c2/c3ccccc3nc3n2CCC3)cc1`: the values for the IC50 on Acetylcholinesterase (read-out: IC50) and against Cholinesterase were 13900 nM and 1900 nM, respectively.

For `c1ccc2/c(=N\CCCCCCC/N=c3\c4ccccc4nc4n3CCC4)n3c(nc2c1)CCC3`, the IC50 at Acetylcholinesterase (read-out: IC50) was determined as 79 nM; against Cholinesterase, 88 nM.

With `CN(CCCN=c1c2ccccc2nc2n1CCC2)CCC/N=c1\c2ccccc2nc2n1CCC2`, the results for the IC50 at Acetylcholinesterase (read-out: IC50) and against Cholinesterase were 541 nM and 547 nM, respectively.

Take `CC(=O)N(CCCN=c1c2ccccc2nc2n1CCC2)CCC/N=c1\c2ccccc2nc2n1CCC2`: the IC50 was 331 nM at Acetylcholinesterase (read-out: IC50) and 267 nM against Cholinesterase.

In the case of `c1ccc2c(=NCCCCCCC/N=c3\c4ccccc4nc4n3CCCCCC4)n3c(nc2c1)CCCCCC3`, the IC50 came to 65 nM at Acetylcholinesterase (read-out: IC50) and 27 nM against Cholinesterase.

`CN(CCCN=c1c2ccccc2nc2n1CCCCCC2)CCC/N=c1\c2ccccc2nc2n1CCCCCC2`: the IC50 at Acetylcholinesterase (read-out: IC50) came to 203 nM; against Cholinesterase it was 197 nM.

For the molecule `CC(=O)N(CCCN=c1c2ccccc2nc2n1CCCCCC2)CCC/N=c1\c2ccccc2nc2n1CCCCCC2`, the IC50 at Acetylcholinesterase (read-out: IC50) was determined as 49 nM; against Cholinesterase, 72.7 nM.

As to `c1ccc2c(=NCCCCCCCCN=c3c4ccccc4nc4n3CCC4)n3c(nc2c1)CCC3`, the figures for the IC50 at Acetylcholinesterase (read-out: IC50) and against Cholinesterase were 58 nM and 4.8 nM, respectively.

Consider `CN(CCCCN=c1c2ccccc2nc2n1CCC2)CCCN=c1c2ccccc2nc2n1CCC2`, for which the results for the IC50 on Acetylcholinesterase (read-out: IC50) and against Cholinesterase were 561 nM and 81.3 nM, respectively.

Regarding `CC(=O)N(CCCCN=c1c2ccccc2nc2n1CCC2)CCCN=c1c2ccccc2nc2n1CCC2`, the IC50 was 20.9 nM at Acetylcholinesterase (read-out: IC50) and 4 nM against Cholinesterase.

As to `CCC(=O)N(CCCCN=c1c2ccccc2nc2n1CCC2)CCCN=c1c2ccccc2nc2n1CCC2`, the IC50 is 18 nM on Acetylcholinesterase (read-out: IC50) and 5.9 nM against Cholinesterase.

On to `C=C(C)C(=O)N(CCCCN=c1c2ccccc2nc2n1CCC2)CCCN=c1c2ccccc2nc2n1CCC2`, for which the IC50 on Acetylcholinesterase (read-out: IC50) stood at 6.7 nM; on Cholinesterase, 10.6 nM.

On to `c1ccc2c(=NCCCCCCCCN=c3c4ccccc4nc4n3CCCCCC4)n3c(nc2c1)CCCCCC3`, for which the IC50 at Acetylcholinesterase (read-out: IC50) was determined as 14400 nM; at Cholinesterase, 76 nM.

For `CN(CCCCN=c1c2ccccc2nc2n1CCCCCC2)CCCN=c1c2ccccc2nc2n1CCCCCC2`, the IC50 at Acetylcholinesterase (read-out: IC50) stood at 606 nM; against Cholinesterase, 51.4 nM.

As to `CC(=O)N(CCCCN=c1c2ccccc2nc2n1CCCCCC2)CCCN=c1c2ccccc2nc2n1CCCCCC2`, the IC50 at Acetylcholinesterase (read-out: IC50) stood at 177 nM; against Cholinesterase it was 43.1 nM.

In the case of `CCC(=O)N(CCCCN=c1c2ccccc2nc2n1CCCCCC2)CCCN=c1c2ccccc2nc2n1CCCCCC2`, the IC50 on Acetylcholinesterase (read-out: IC50) came to 289 nM; against Cholinesterase, 46.3 nM.

With `C=C(C)C(=O)N(CCCCN=c1c2ccccc2nc2n1CCCCCC2)CCCN=c1c2ccccc2nc2n1CCCCCC2`, the IC50 at Acetylcholinesterase (read-out: IC50) stood at 153 nM; at Cholinesterase it was 37.7 nM.

Turning to `CC(=O)NCC(=O)N(CCCCN=c1c2ccccc2nc2n1CCCCCC2)CCCN=c1c2ccccc2nc2n1CCCCCC2`, the results for the IC50 on Acetylcholinesterase (read-out: IC50) and against Cholinesterase were 75.6 nM and 122 nM, respectively.

Take `CC(C)(C)C(=O)N(CCCCN=c1c2ccccc2nc2n1CCCCCC2)CCCN=c1c2ccccc2nc2n1CCCCCC2`: the IC50 on Acetylcholinesterase (read-out: IC50) is 536 nM; on Acetylcholinesterase (read-out: pIC50 (converted)) it was 53.6 nM; against Cholinesterase it was 25.5 nM.

Take `CCCCC(=O)N(CCCCN=c1c2ccccc2nc2n1CCCCCC2)CCCN=c1c2ccccc2nc2n1CCCCCC2`: the IC50 at Acetylcholinesterase (read-out: IC50) was 1060 nM; at Cholinesterase it was 12.9 nM.

As to `CC(C)CC(=O)N(CCCCN=c1c2ccccc2nc2n1CCCCCC2)CCCN=c1c2ccccc2nc2n1CCCCCC2`, the IC50 at Acetylcholinesterase (read-out: IC50) was found to be 621 nM; on Cholinesterase, 8.1 nM.

On to `CC(C)CCC(=O)N(CCCCN=c1c2ccccc2nc2n1CCCCCC2)CCCN=c1c2ccccc2nc2n1CCCCCC2`, for which the IC50 at Acetylcholinesterase (read-out: IC50) is 792 nM; on Cholinesterase, 3 nM.
